Experimental data taken from patent US20200222474A1, “COMPOSITIONS AND METHODS FOR INCREASING PHYTOCHEMICAL BIOAVAILABLITY AND BIOACTIVITY” (North Carolina State University, priority 2017, published 2020).

Test system: L. acidophilus NCFM
Experiment: RNA-seq transcriptional analysis of L. acidophilus NCFM growing on plant glycosides
Format: cell-based, Lactobacillus acidophilus
[1] = LBA0329 Putative cell division protein, COG D
[2] = LBA0466 Hypothetical protein, COG C
[3] = LBA0500 MSM operon repressor, COG K
[4] = LBA0545 Hypothetical protein, COG L
[5] = LBA0547 Putative site-specific recombinase, COG L
[6] = LBA0573 Putative transcriptional regulator, COG K
[7] = LBA0607 Putative transcriptional regulator, COG K
[8] = LBA0672 Putative phosphate starvation inducible protein stress related, COG J
[9] = LBA0753 Multi-drug-type permease, COG GEPR
[10] = LBA0886 Sugar kinase-putative transcriptional regulator, COG KG
[11] = LBA0887 Hypothetical protein, COG C
[12] = LBA0897 Putative Cro-like protein, COG K
[13] = LBA0910 L-lactate dehydrogenase, COG C
[14] = LBA1021 Putative transcriptional regulator, COG K
[15] = LBA1220 Pyridine mercuric reductase, COG C
[16] = LBA1392 Mucus binding protein precursor Mub, COG J
[17] = LBA1411 Fumarate reductase flavoprotein subunit, COG CS
[18] = LBA1436 Glycerol uptake facilitator protein, COG G
[19] = LBA1457 Galactose-1-epimerase, COG G
[20] = LBA1458 Galactose-1-phosphate uridylyltransferase, COG G
[21] = LBA1462 Beta-galactosidase, COG G
[22] = LBA1463 Lactose permease, COG G
[23] = LBA1465 Transcription repressor of beta-galactosidasegene, COG K
[24] = LBA1467 Beta-galactosidase large subunit (lactase), COG G
[25] = LBA1468 Beta-galactosidase small subunit, COG G
[26] = LBA1481 D-ribose-binding protein precursor, COG G
[27] = LBA1482 Ribose ABC transporter, COG G
[28] = LBA1483 Ribose ABC transporter ATP binding protein, COG G
[29] = LBA1484 D-ribose pyranase, COG G
[30] = LBA1494 Lincomycin-resistance protein, COG GEPR
[31] = LBA1607 Phosphatidylserine decarboxylase precursor, COG I
[32] = LBA1632 NAD-dependent aldehyde dehydrogenase, COG C
[33] = LBA1653 Nicotinamide mononucleotide, COG H
[34] = LBA1684 Putative PTS system IIA component, COG G
[35] = LBA1689 Maltose-6′-phosphate Oucosidase, COG G
[36] = LBA1700 Transcriptional regulator-type, COG K
[37] = LBA1701 Melibiose operon regulatory protein, COG K
[38] = LBA1705 PTS system IIBC component, COG G
[39] = LBA1708 Transcriptional antiterminator, COG K
[40] = LBA1710 Thermostable pullulanase, COG G
[41] = LBA1812 Alpha-glucosidase II, COG G
[42] = LBA1870 Maltose phosphorylase, COG G
[43] = LBA1872 Oligo-1,6-glucosidase, COG G

## OC[C@H]1O[C@@H](O[C@H]2[C@H](O)[C@@H](O)[C@@H](O)O[C@@H]2CO)[C@H](O)[C@@H](O)[C@H]1O [Lac]
LBA0016 Fructokinase, COG KG
  Log2 differential normalized TPM ratio compared to glucose: 1.2
  Transcripts per million (rpm): 211.4 rpm
[1]
  Log2 differential normalized TPM ratio compared to glucose: 0.4
  Transcripts per million (rpm): 22.1 rpm
[2]
  Log2 differential normalized TPM ratio compared to glucose: 1.5
  Transcripts per million (rpm): 270 rpm
[3]
  Log2 differential normalized TPM ratio compared to glucose: 1.6
  Transcripts per million (rpm): 162 rpm
[4]
  Log2 differential normalized TPM ratio compared to glucose: 2
  Transcripts per million (rpm): 306 rpm
[5]
  Log2 differential normalized TPM ratio compared to glucose: 1.7
  Transcripts per million (rpm): 37.9 rpm
[6]
  Log2 differential normalized TPM ratio compared to glucose: 0.1
  Transcripts per million (rpm): 98.5 rpm
[7]
  Log2 differential normalized TPM ratio compared to glucose: 0.5
  Transcripts per million (rpm): 66.9 rpm
[8]
  Log2 differential normalized TPM ratio compared to glucose: 0.8
  Transcripts per million (rpm): 2957.4 rpm
[9]
  Log2 differential normalized TPM ratio compared to glucose: −0.8
  Transcripts per million (rpm): 29.5 rpm
[10]
  Log2 differential normalized TPM ratio compared to glucose: 0.2
  Transcripts per million (rpm): 7.7 rpm
[11]
  Log2 differential normalized TPM ratio compared to glucose: 1.2
  Transcripts per million (rpm): 133.7 rpm
[12]
  Log2 differential normalized TPM ratio compared to glucose: −2.4
  Transcripts per million (rpm): 0.5 rpm
[13]
  Log2 differential normalized TPM ratio compared to glucose: 1
  Transcripts per million (rpm): 257.2 rpm
[14]
  Log2 differential normalized TPM ratio compared to glucose: 0.3
  Transcripts per million (rpm): 186.9 rpm
[15]
  Log2 differential normalized TPM ratio compared to glucose: 1
  Transcripts per million (rpm): 394.7 rpm
[16]
  Log2 differential normalized TPM ratio compared to glucose: −0.2
  Transcripts per million (rpm): 88.9 rpm
[17]
  Log2 differential normalized TPM ratio compared to glucose: 1.1
  Transcripts per million (rpm): 4.7 rpm
[18]
  Log2 differential normalized TPM ratio compared to glucose: 3.8
  Transcripts per million (rpm): 37 rpm
[19]
  Log2 differential normalized TPM ratio compared to glucose: 5.6
  Transcripts per million (rpm): 732.6 rpm
[20]
  Log2 differential normalized TPM ratio compared to glucose: 5.7
  Transcripts per million (rpm): 679.9 rpm
LBA1459 Galactokinase, COG G
  Log2 differential normalized TPM ratio compared to glucose: 4.6
  Transcripts per million (rpm): 610.1 rpm
[21]
  Log2 differential normalized TPM ratio compared to glucose: 6
  Transcripts per million (rpm): 1123.2 rpm
[22]
  Log2 differential normalized TPM ratio compared to glucose: 4.7
  Transcripts per million (rpm): 1427.3 rpm
LBA1464 Transposase, COG L
  Log2 differential normalized TPM ratio compared to glucose: 2.4
  Transcripts per million (rpm): 956 rpm
[23]
  Log2 differential normalized TPM ratio compared to glucose: 3.1
  Transcripts per million (rpm): 485.8 rpm
[24]
  Log2 differential normalized TPM ratio compared to glucose: 8.8
  Transcripts per million (rpm): 2333 rpm
[25]
  Log2 differential normalized TPM ratio compared to glucose: 6.4
  Transcripts per million (rpm): 1790.7 rpm
[26]
  Log2 differential normalized TPM ratio compared to glucose: 0.7
  Transcripts per million (rpm): 8.1 rpm
[27]
  Log2 differential normalized TPM ratio compared to glucose: 1
  Transcripts per million (rpm): 7.9 rpm
[28]
  Log2 differential normalized TPM ratio compared to glucose: 1
  Transcripts per million (rpm): 6.4 rpm
[29]
  Log2 differential normalized TPM ratio compared to glucose: 0.6
  Transcripts per million (rpm): 6.1 rpm
LBA1485 Ribokinase, COG G
  Log2 differential normalized TPM ratio compared to glucose: 0.7
  Transcripts per million (rpm): 5.2 rpm
[30]
  Log2 differential normalized TPM ratio compared to glucose: 0.1
  Transcripts per million (rpm): 5.7 rpm
[31]
  Log2 differential normalized TPM ratio compared to glucose: 1
  Transcripts per million (rpm): 41.1 rpm
[32]
  Log2 differential normalized TPM ratio compared to glucose: 1.8
  Transcripts per million (rpm): 253.3 rpm
[33]
  Log2 differential normalized TPM ratio compared to glucose: 0.6
  Transcripts per million (rpm): 369.4 rpm
[34]
  Log2 differential normalized TPM ratio compared to glucose: 1.9
  Transcripts per million (rpm): 48 rpm
[35]
  Log2 differential normalized TPM ratio compared to glucose: 1.4
  Transcripts per million (rpm): 9.7 rpm
[36]
  Log2 differential normalized TPM ratio compared to glucose: 0.4
  Transcripts per million (rpm): 28.8 rpm
[37]
  Log2 differential normalized TPM ratio compared to glucose: 0.8
  Transcripts per million (rpm): 69.9 rpm
[38]
  Log2 differential normalized TPM ratio compared to glucose: 0.8
  Transcripts per million (rpm): 6.1 rpm
[39]
  Log2 differential normalized TPM ratio compared to glucose: 1.4
  Transcripts per million (rpm): 1.6 rpm
[40]
  Log2 differential normalized TPM ratio compared to glucose: 0.4
  Transcripts per million (rpm): 9.9 rpm
LBA1723 Transposase, COG L
  Log2 differential normalized TPM ratio compared to glucose: 0.2
  Transcripts per million (rpm): 62 rpm
[41]
  Log2 differential normalized TPM ratio compared to glucose: 2
  Transcripts per million (rpm): 68.8 rpm
[42]
  Log2 differential normalized TPM ratio compared to glucose: −1.2
  Transcripts per million (rpm): 46.3 rpm
LBA1871 Neopullulanase, COG G
  Log2 differential normalized TPM ratio compared to glucose: 0.7
  Transcripts per million (rpm): 4.5 rpm
[43]
  Log2 differential normalized TPM ratio compared to glucose: 0.4
  Transcripts per million (rpm): 4 rpm
LBA1873 Acetate kinase, COG C
  Log2 differential normalized TPM ratio compared to glucose: 1.4
  Transcripts per million (rpm): 9 rpm
